# US20160376240A1, “6 Phenyl or 6 Pyridin 3 YL Indazole Derivatives and Methods of Use” (ABBVIE INC., priority 2014, published 2016)
# Target: T1, TrkA (Homo sapiens, UniProt P04629)
# T1 construct: purchased Invitrogen PV3144
# Test: TrkA kinase inhibition, HTRF assay
# Type: biochemical
# Conditions: LCK peptide substrate 125 nM, TrkA 2-10 nM pre-incubated with ATP 200 μM
# Procedure, shortened: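 TrkA (2-10 nM) preactivated 20 min with 200 μM ATP in HEPES pH 7.4 with Mg2+/Mn2+, then compound for 10 min, then 125 nM biotinylated LCK-peptide for 1 h at ambient temperature. HTRF 665/620 ratio read; IC50 fitted from initial-rate percent inhibition.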
# T1 sequence (P04629 33-796): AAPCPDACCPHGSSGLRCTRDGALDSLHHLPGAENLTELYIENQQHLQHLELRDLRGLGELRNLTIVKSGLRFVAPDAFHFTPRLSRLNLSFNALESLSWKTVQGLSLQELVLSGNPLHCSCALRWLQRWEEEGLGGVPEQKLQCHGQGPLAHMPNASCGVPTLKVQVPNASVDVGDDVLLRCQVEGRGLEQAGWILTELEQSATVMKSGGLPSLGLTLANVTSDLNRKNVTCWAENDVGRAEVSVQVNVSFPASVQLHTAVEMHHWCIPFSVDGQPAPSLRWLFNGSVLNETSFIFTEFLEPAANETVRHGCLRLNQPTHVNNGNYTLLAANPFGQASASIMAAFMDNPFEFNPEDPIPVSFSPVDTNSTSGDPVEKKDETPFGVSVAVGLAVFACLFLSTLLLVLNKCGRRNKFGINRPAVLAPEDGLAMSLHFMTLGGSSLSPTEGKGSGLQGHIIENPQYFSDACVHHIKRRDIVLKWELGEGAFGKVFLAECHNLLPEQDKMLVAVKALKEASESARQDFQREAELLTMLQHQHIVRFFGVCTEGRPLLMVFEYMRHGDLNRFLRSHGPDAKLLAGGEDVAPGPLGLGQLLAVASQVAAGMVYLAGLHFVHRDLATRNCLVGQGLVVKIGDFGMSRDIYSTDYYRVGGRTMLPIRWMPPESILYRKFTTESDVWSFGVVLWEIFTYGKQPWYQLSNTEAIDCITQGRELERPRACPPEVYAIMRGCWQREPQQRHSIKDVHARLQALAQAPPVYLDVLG
row,SMILES,IC50
1,"CNC(=O)c1ccc(-c2cc(OC3CCOCC3)c3c(N)n[nH]c3c2)cc1N1CCN(C(=O)C2CC2)CC1 [Example 32, 4-[3-amino-4-(tetrahydro-2H-pyran-4-yloxy)-1H-indazol-6-yl]-2-[4-(cyclopropylcarbonyl)piperazin-1-yl]-N-methylbenzamide]",376 nM
2,"CNC(=O)c1ccc(-c2cc(OC3CCOCC3)c3c(C)n[nH]c3c2)cc1N1CCN(S(=O)(=O)c2ccc(C)cc2)CC1 [Example 152, N-methyl-2-{4-[(4-methylphenyl)sulfonyl]piperazin-1-yl}-4-[3-methyl-4-(tetrahydro-2H-pyran-4-yloxy)-1H-indazol-6-yl]benzamide]",7.48 nM
3,"CC(Oc1cc(-c2ccc(C(N)=O)c(N3CCN(C(=O)C(C)(C)C)CC3)c2)cc2[nH]nc(N)c12)C(F)(F)F (stereo not shown) [Example 104, 4-{3-amino-4-[(1,1,1-trifluoropropan-2-yl)oxy]-1H-indazol-6-yl}-2-[4-(2,2-dimethylpropanoyl)piperazin-1-yl]benzamide]",14 nM
4,"CNC(=O)c1ccc(-c2cc(OC3CCOCC3)c3c(C)n[nH]c3c2)cc1N1CCN(c2ncc(F)cn2)CC1 [Example 165, 2-[4-(5-fluoropyrimidin-2-yl)piperazin-1-yl]-N-methyl-4-[3-methyl-4-(tetrahydro-2H-pyran-4-yloxy)-1H-indazol-6-yl]benzamide]",1040 nM
5,"Cc1n[nH]c2cc(-c3ccc(C(N)=O)c(N4CCN(C(=O)OC(C)(C)C)CC4)c3)cc(OC3CCOCC3)c12 [Example 140, tert-butyl 4-{2-carbamoyl-5-[3-methyl-4-(tetrahydro-2H-pyran-4-yloxy)-1H-indazol-6-yl]phenyl}piperazine-1-carboxylate]",31.9 nM
6,"CC(Oc1cc(-c2ccc(C(N)=O)c(N3C[C@H]4CN(Cc5ccccc5)C[C@H]4C3)c2)cc2[nH]nc(N)c12)C(F)(F)F (stereo partly drawn) [Example 99, 4-{3-amino-4-[(1,1,1-trifluoropropan-2-yl)oxy]-1H-indazol-6-yl}-2-[(3aR*,6aS*)-5-benzylhexahydropyrrolo[3,4-c]pyrrol-2(1H)-yl]benzamide]",852 nM
7,"CC(=O)Nc1ccc(-c2cc(OC3CCOCC3)c3c(C)n[nH]c3c2)cc1OCCNC(=O)OC(C)C [Example 147, isopropyl (2-{2-acetamido-5-[3-methyl-4-(tetrahydro-2H-pyran-4-yloxy)-1H-indazol-6-yl]phenoxy}ethyl)carbamate]",30.9 nM
8,"CNC(=O)c1ccc(-c2cc(OC3CCOCC3)c3c(N)n[nH]c3c2)cc1N1CCN(CC(C)(F)F)CC1 [Example 172, 4-[3-amino-4-(tetrahydro-2H-pyran-4-yloxy)-1H-indazol-6-yl]-2-[4-(2,2-difluoropropyl)piperazin-1-yl]-N-methylbenzamide]",22 nM
9,"CC(=O)Nc1ccc(-c2cc(OC3CCOCC3)c3c(C)n[nH]c3c2)cc1N1CCN(Cc2cccc(F)c2)CC1 [Example 149, N-{2-[4-(3-fluorobenzyl)piperazin-1-yl]-4-[3-methyl-4-(tetrahydro-2H-pyran-4-yloxy)-1H-indazol-6-yl]phenyl}acetamide]",25 nM
10,"CC(Oc1cc(-c2ccc(C(N)=O)c(N3CCN(C4CCCCC4)CC3)c2)cc2[nH]nc(N)c12)C(F)(F)F (stereo not shown) [Example 93, 4-{3-amino-4-[(1,1,1-trifluoropropan-2-yl)oxy]-1H-indazol-6-yl}-2-(4-cyclohexylpiperazin-1-yl)benzamide]",27 nM
11,"CNC(=O)c1ccc(-c2cc(O[C@H](C)C(F)(F)F)c3c(N)n[nH]c3c2)cc1N1CCC(N2CCOCC2)CC1 [Example 59, 4-(3-amino-4-{[(2R)-1,1,1-trifluoropropan-2-yl]oxy}-1H-indazol-6-yl)-N-methyl-2-[4-(morpholin-4-yl)piperidin-1-yl]benzamide]",2550 nM
12,"CCNC(=O)c1ccc(-c2cc(OC3CCOCC3)c3c(C)n[nH]c3c2)cc1N1CCN(c2ccccc2)CC1 [Example 115, N-ethyl-4-[3-methyl-4-(tetrahydro-2H-pyran-4-yloxy)-1H-indazol-6-yl]-2-(4-phenylpiperazin-1-yl)benzamide]",32.8 nM
13,"CNC(=O)c1ccc(-c2cc(OC(C)C(F)(F)F)c3c(N)n[nH]c3c2)cc1N1CCN(CCN2CCOCC2)CC1 (stereo not shown) [Example 37, 4-{3-amino-4-[(1,1,1-trifluoropropan-2-yl)oxy]-1H-indazol-6-yl}-N-methyl-2-{4-[2-(morpholin-4-yl)ethyl]piperazin-1-yl}benzamide]",667 nM
14,"CNC(=O)c1ccc(-c2cc(O[C@@H](C)C(F)(F)F)c3c(N)n[nH]c3c2)cc1N1CCN(c2cnccn2)CC1 [Example 46, 4-(3-amino-4-{[(2S)-1,1,1-trifluoropropan-2-yl]oxy}-1H-indazol-6-yl)-N-methyl-2-[4-(pyrazin-2-yl)piperazin-1-yl]benzamide]",32.5 nM
15,"Cc1n[nH]c2cc(-c3ccc(C(N)=O)c(N4CC5(CN(CC(F)(F)F)C5)C4)c3)cc(OC3CCOCC3)c12 [Example 166, 4-[3-methyl-4-(tetrahydro-2H-pyran-4-yloxy)-1H-indazol-6-yl]-2-[6-(2,2,2-trifluoroethyl)-2,6-diazaspiro[3.3]hept-2-yl]benzamide]",1040 nM
16,"Cc1n[nH]c2cc(-c3ccc(C#N)c(N4CCN(CC(F)(F)F)CC4)c3)cc(OC3CCOCC3)c12 [Example 156, 4-[3-methyl-4-(tetrahydro-2H-pyran-4-yloxy)-1H-indazol-6-yl]-2-[4-(2,2,2-trifluoroethyl)piperazin-1-yl]benzonitrile]",29.1 nM

row,SMILES,IC50
1,"CNC(=O)c1ccc(-c2cc(OC3CCOCC3)c3c(C)n[nH]c3c2)cc1N1CCN(C(=O)CC(C)C)CC1 [Example 160, N-methyl-2-[4-(3-methylbutanoyl)piperazin-1-yl]-4-[3-methyl-4-(tetrahydro-2H-pyran-4-yloxy)-1H-indazol-6-yl]benzamide]",59.3 nM
2,"CNC(=O)c1ccc(-c2cc(OC3CCCC3)c3c(C)n[nH]c3c2)cc1N1CCN(C2CCCCC2)CC1 [Example 121, 2-(4-cyclohexylpiperazin-1-yl)-4-[4-(cyclopentyloxy)-3-methyl-1H-indazol-6-yl]-N-methylbenzamide]",17.3 nM
3,"CC(=O)Nc1ccc(-c2cc(OC3CCOCC3)c3c(C)n[nH]c3c2)cc1N1CCN(Cc2ccccc2)CC1 [Example 145, N-{2-(4-benzylpiperazin-1-yl)-4-[3-methyl-4-(tetrahydro-2H-pyran-4-yloxy)-1H-indazol-6-yl]phenyl}acetamide]",12.6 nM
4,"NC(=O)c1ccc(-c2ccc3c(N)n[nH]c3c2)cc1N1CCN(c2ccccn2)CC1 [Example 86, 4-(3-amino-1H-indazol-6-yl)-2-[4-(pyridin-2-yl)piperazin-1-yl]benzamide]",16.1 nM
5,"CNC(=O)c1ccc(-c2cc(O[C@H](C)C(F)(F)F)c3c(N)n[nH]c3c2)cc1N1CCN(c2ncccn2)CC1 [Example 52, 4-(3-amino-4-{[(2R)-1,1,1-trifluoropropan-2-yl]oxy}-1H-indazol-6-yl)-N-methyl-2-[4-(pyrimidin-2-yl)piperazin-1-yl]benzamide]",27.2 nM
6,"CC(=O)c1ccc(-c2cc(OC3CCOCC3)c3c(N)n[nH]c3c2)cc1N1CCN(c2ccccc2)CC1 [Example 13, 1-{4-[3-amino-4-(tetrahydro-2H-pyran-4-yloxy)-1H-indazol-6-yl]-2-(4-phenylpiperazin-1-yl)phenyl}ethanone]",62.9 nM
7,"Nc1n[nH]c2cc(-c3ccc(C(=O)NC4CC4)c(N4CCN(c5cccnc5)CC4)c3)cc(OC3CCOCC3)c12 [Example 24, 4-[3-amino-4-(tetrahydro-2H-pyran-4-yloxy)-1H-indazol-6-yl]-N-cyclopropyl-2-[4-(pyridin-3-yl)piperazin-1-yl]benzamide]",20.4 nM
8,"CC(=O)c1ccc(-c2cc(OC3CCOCC3)c3c(N)n[nH]c3c2)cc1N1CCN(C(=O)C2CC2)CC1 [Example 20, 1-{4-[3-amino-4-(tetrahydro-2H-pyran-4-yloxy)-1H-indazol-6-yl]-2-[4-(cyclopropylcarbonyl)piperazin-1-yl]phenyl}ethanone]",101 nM
9,"NC(=O)c1ccc(-c2ccc3c(N)n[nH]c3c2)cc1N1CCN(CC(=O)N2CCCC2)CC1 [Example 83, 4-(3-amino-1H-indazol-6-yl)-2-{4-[2-oxo-2-(pyrrolidin-1-yl)ethyl]piperazin-1-yl}benzamide]",8330 nM
10,"NC(=O)c1ccc(-c2cc(OC3CCOCC3)c3c(N)n[nH]c3c2)cc1N1CCN(CCOCCO)CC1 [Example 11, 4-[3-amino-4-(tetrahydro-2H-pyran-4-yloxy)-1H-indazol-6-yl]-2-{4-[2-(2-hydroxyethoxy)ethyl]piperazin-1-yl}benzamide]",208 nM
11,"NC(=O)c1ccc(-c2ccc3c(N)n[nH]c3c2)cc1N1CCN(Cc2ccccc2)CC1 [Example 87, 4-(3-amino-1H-indazol-6-yl)-2-(4-benzylpiperazin-1-yl)benzamide]",43.3 nM
12,"Cc1n[nH]c2cc(-c3ccc(C(N)=O)c(N4CCN(C(=O)OC(C)C)CC4)c3)cc(OC3CCOCC3)c12 [Example 142, isopropyl 4-{2-carbamoyl-5-[3-methyl-4-(tetrahydro-2H-pyran-4-yloxy)-1H-indazol-6-yl]phenyl}piperazine-1-carboxylate]",23.2 nM
13,"Cc1n[nH]c2cc(-c3ccc(C(=O)NC4CC4)c(N4CCN(c5ccccc5)CC4)c3)cc(OC3CCOCC3)c12 [Example 117, N-cyclopropyl-4-[3-methyl-4-(tetrahydro-2H-pyran-4-yloxy)-1H-indazol-6-yl]-2-(4-phenylpiperazin-1-yl)benzamide]",17.7 nM
14,"NC(=O)c1ccc(-c2cc(O[C@@H]3CCOC3)c3c(N)n[nH]c3c2)cc1N1CCN(c2cccnc2)CC1 [Example 68, 4-{3-amino-4-[(3R)-tetrahydrofuran-3-yloxy]-1H-indazol-6-yl}-2-[4-(pyridin-3-yl)piperazin-1-yl]benzamide]",8.06 nM
15,"CNC(=O)c1ccc(-c2cc(OC3CCOCC3)c3c(C)n[nH]c3c2)cc1N1CCN(Cc2ccccc2)C(=O)C1 [Example 159, 2-(4-benzyl-3-oxopiperazin-1-yl)-N-methyl-4-[3-methyl-4-(tetrahydro-2H-pyran-4-yloxy)-1H-indazol-6-yl]benzamide]",21.5 nM
